One test relates to fibrin plate. Briefly: In vitro fibrinolytic lysis on fibrin plate (fibrinogen-agarose). In kind it is biochemical, rabbit. The conditions noted are these: dosage per well differs per compound (0.8-2.2 μg; UK 5 IU); n = 6; NS control 21.01 ± 9.26. Here is the method:
The plates were prepared by mixing equal volumes of 0.3% rabbit fibrinogen and 0.95% agarose solutions, both dissolved in 50 mM of barbital buffer (pH 7.8, contained 1.66 mM of CaCl2, 0.68 mM of MgCl2 and 93.96 mM of NaCl)^[6]. The fibrinogen-agarose mixture was coagulated with […] thrombin (100 IU: ml) in the plastic dishes (its diameter is 90 mm and the depth of the fibrin plate is 1 mm). After 30 min at 4° C. an adequate number of wells, 5 mm in diameter, were perforated. To determine fibrinolytic activity […] aliquots of the tested pseudopeptides were added to each well, the plate was incubated, and areas of lysis were quantified as described for the regular fibrin plates.

Test [1] has as its system rabbit euglobulin fraction. The test is described as follows: In vitro euglobulin clot lysis time (ECLT). It is filed as biochemical. To be noted: dosage differs per compound (1.3-6.7 μg; UK 5 IU); 96 well microtiter plate; n = 6; NS control 200.01 ± 15.26. The method, then: The rabbit euglobulin fraction was prepared according to the literature^[6]. Plasma diluted […] in distilled water was precipitated at pH 5.7 with acetic acid (0.25%). After 30 min at 4° C. the suspension was centrifuged at 2000 g for 15 min and the precipitate was resuspended to the initial plasma volume with 50 mM barbital buffer (pH 7.8, contained 1.66 mM of CaCl2, 0.68 mM of MgCl2 and 93.96 mM of NaCl). Euglobulin clot lysis time (ECLT) of the tested pseudopeptide was measured using a 96 well microtiter plate^[7] and the data are listed in Table 2.

Another test has as its system thrombus. The test is described as follows: In vivo thrombolytic activity, thrombus on steel helix in extracorporeal circulation. To be noted: male Wistar rats; injected; dose differs per compound (3.1-8.2 mg/kg; UK 20000 IU); blood circulated 90 min; n = 10; NS control 12.31 ± 2.57. Here is the method:
Male Wistar rats weighing 200–300 g (purchased from Animal Center of Peking University) were anesthetized with pentobarbital sodium (80.0 mg/kg, ip). The right carotid artery and left vein jugular of the animals were separated. To the glass tube filled with artery blood (1.0 ml) from the right carotid artery of the animal a stainless steel filament helix (15 circles; L, 15 mm; D, 1.0 mm) was put immediately. After 15 minutes the helix with thrombus was carefully taken out and weighted exactly, which was put into the middle polyethylene tube. The polyethylene tube was full with heparin sodium (50 IU/ml of NS) and one end was inserted into the left jugular vein. Heparin sodium was injected via the other end of the polyethylene tube as the anticoagulant, following which the tested pseudopeptide was injected. The blood was circulated through the polyethylene tube for 90 min, after which the helix was taken out and weighted accurately.

The record followed here is patent publication US7138491B2, “Carboline-3-carboxylic acid modified related sequences of Ala-Arg-Pro-Ala-Lys, their synthesis and use as thromobolytic agent” (Guangzhou Bai Yun Shan Pharmaceutical Co., Ltd., priority 2003, dated 2006).

Marks after values point to notes of the source that are not given here. Ends that are not written are not given here.

For “3S-1,2,3,4-tetrahydro-β-carboline-3-carboxyl-Ala-Arg-Pro-Ala-Lys-OH (ARPAK-OH; not fully specified (N-terminus); printed as 3S-1,2,3,4-tetrahydro-β-carboline-3-carboxyl-Ala-Arg-Pro-Ala-Lys-OH) [compound 11]”, the “Effect of the pseudopeptides on fibrin plate, areas of lysis, x ± SD” value (“Effect of the pseudopeptides … x ± SD” for short) with fibrin plate is on record as 24.10 ± 10.16 mm^2. Further, in test [1], the “Euglobulin clot lysis time, x ± SD” value was 204.01 ± 32.61 min. Moreover, the “The reduction of thrombolytic mass, x ± SD” value (“The reduction … x ± SD” below) in the test on thrombus amounted to 14.01 ± 2.61 mg.
On the same counts, the results for “3S-1,2,3,4-tetrahydro-β-carboline-3-carboxyl-Ala-Arg-Pro-Ala-OH (ARPA-OH; not fully specified (N-terminus); printed as 3S-1,2,3,4-tetrahydro-β-carboline-3-carboxyl-Ala-Arg-Pro-Ala-OH) [compound 17]” are 23.44 ± 10.18 mm^2, 213.55 ± 30.47 min and 13.55 ± 2.47 mg.
On the same counts, the results for “3S-1,2,3,4-tetrahydro-β-carboline-3-carboxyl-Ala-Arg-Pro-OH [compound 18]” are 23.88 ± 10.04 mm^2, 203.66 ± 30.44 min and 13.66 ± 2.44 mg.
In the same order, the values of “3S-1,2,3,4-tetrahydro-β-carboline-3-carboxyl-Arg-Arg-Pro-Ala-Lys-OH (RRPAK-OH; not fully specified (N-terminus); printed as 3S-1,2,3,4-tetrahydro-β-carboline-3-carboxyl-Arg-Arg-Pro-Ala-Lys-OH) [compound 26]” are 24.00 ± 12.01 mm^2, 214.80 ± 32.96 min and 14.80 ± 2.96 mg.
As for “3S-1,2,3,4-tetrahydro-β-carboline-3-carboxyl-Arg-Pro-Ala-Lys-OH (RPAK-OH; not fully specified (N-terminus); printed as 3S-1,2,3,4-tetrahydro-β-carboline-3-carboxyl-Arg-Pro-Ala-Lys-OH) [compound 19]”, in the test with fibrin plate, the “Effect of the pseudopeptides … x ± SD” value is 20.33 ± 9.28 mm^2. The “Euglobulin clot lysis time, x ± SD” value in test [1] came to 213.56 ± 29.95 min. In the test with thrombus, the “The reduction … x ± SD” value is 13.56 ± 2.45 mg.
On the same counts, the results for “3S-1,2,3,4-tetrahydro-β-carboline-3-carboxyl-Asn-Arg-Pro-Ala-Lys-OH (NRPAK-OH; not fully specified (N-terminus); printed as 3S-1,2,3,4-tetrahydro-β-carboline-3-carboxyl-Asn-Arg-Pro-Ala-Lys-OH) [compound 15]” are 23.21 ± 9.74 mm^2, 213.12 ± 29.47 min and 13.12 ± 2.47 mg.
In the same order, the values of “3S-1,2,3,4-tetrahydro-β-carboline-3-carboxyl-Gln-Arg-Pro-Ala-Lys-OH (QRPAK-OH; not fully specified (N-terminus); printed as 3S-1,2,3,4-tetrahydro-β-carboline-3-carboxyl-Gln-Arg-Pro-Ala-Lys-OH) [compound 14]” are 22.89 ± 10.02 mm^2, 212.98 ± 28.42 min and 12.98 ± 2.42 mg.
Turning to “3S-1,2,3,4-tetrahydro-β-carboline-3-carboxyl-Gly-Arg-Pro-Ala-Lys-OH (GRPAK-OH; not fully specified (N-terminus); printed as 3S-1,2,3,4-tetrahydro-β-carboline-3-carboxyl-Gly-Arg-Pro-Ala-Lys-OH) [compound 12]”, in the test with fibrin plate, the “Effect of the pseudopeptides … x ± SD” value is listed as 23.53 ± 9.74 mm^2. For the same substance, the “Euglobulin clot lysis time, x ± SD” value in test [1] was found to be 213.35 ± 29.47 min. The “The reduction … x ± SD” value with thrombus was found to be 13.35 ± 2.47 mg.
On to “3S-1,2,3,4-tetrahydro-β-carboline-3-carboxyl-Lys-Arg-Pro-Ala-Lys-OH (KRPAK-OH; not fully specified (N-terminus); printed as 3S-1,2,3,4-tetrahydro-β-carboline-3-carboxyl-Lys-Arg-Pro-Ala-Lys-OH) [compound 13]”, for which, in the test on fibrin plate, the “Effect of the pseudopeptides … x ± SD” value was 24.01 ± 10.05 mm^2. Besides, the “Euglobulin clot lysis time, x ± SD” value in test [1] is given as 214.11 ± 32.67 min. For the same substance, in the test on thrombus, the “The reduction … x ± SD” value is 14.11 ± 2.67 mg.
As for “3S-1,2,3,4-tetrahydro-β-carboline-3-carboxyl-Pro-Ala-Lys-OH [compound 20]”, the “Effect of the pseudopeptides … x ± SD” value in the test on fibrin plate came out at 19.41 ± 11.71 mm^2. Besides, the “Euglobulin clot lysis time, x ± SD” value in test [1] amounted to 209.31 ± 31.57 min. In the test on thrombus, this substance had a The reduction of thrombolytic mass, x ± SD of 13.31 ± 0.0257 mg.
In the same order, the values of “3S-(2-Ala-Arg-Pro)-1,2,3,4-tetrahydro-β-carboline-3-carboxylic acid [compound 28]” are 21.21 ± 11.11 mm^2, 213.23 ± 31.58 min and 13.23 ± 2.58 mg.
As for “3S-(2-Ala-Arg-Pro-Ala)-1,2,3,4-tetrahydro-β-carboline-3-carboxylic acid (ARPA; not fully specified (C-terminus)) [compound 27]”, in the test on fibrin plate, the “Effect of the pseudopeptides … x ± SD” value stood at 23.32 ± 9.99 mm^2. For the same substance, the “Euglobulin clot lysis time, x ± SD” value in test [1] turned out to be 203.89 ± 29.67 min. Further, in the test on thrombus, the “The reduction … x ± SD” value came out at 13.89 ± 2.67 mg.
Turning to “3S-(2-Ala-Arg-Pro-Ala-Lys)-1,2,3,4-tetrahydro-β-carboline-3-carboxylic acid (ARPAK; not fully specified (C-terminus)) [compound 21]”, the “Effect of the pseudopeptides … x ± SD” value in the test on fibrin plate is recorded as 119.70 ± 10.71^a mm^2. The “Euglobulin clot lysis time, x ± SD” value in test [1] is 119.70 ± 23.71^a min. In the test on thrombus, the “The reduction … x ± SD” value was 19.7 ± 3.71^2) mg.
In the same order, the values of “3S-(2-Arg-Arg-Pro-Ala-Lys)-1,2,3,4-tetrahydro-β-carboline-3-carboxylic acid (RRPAK; not fully specified (C-terminus)) [compound 16]” are 24.19 ± 10.08 mm^2, 204.11 ± 32.87 min and 14.11 ± 2.87 mg.
With “3S-(2-Arg-Pro-Ala-Lys)-1,2,3,4-tetrahydro-β-carboline-3-carboxylic acid (RPAK; not fully specified (C-terminus)) [compound 29]”, the “Effect of the pseudopeptides … x ± SD” value with fibrin plate is 126.55 ± 9.98^a mm^2. Besides, the “Euglobulin clot lysis time, x ± SD” value in test [1] is listed as 104.40 ± 27.51^a min. Further, in the test on thrombus, the “The reduction … x ± SD” value is given as 24.40 ± 2.51^a,d mg.
“3S-(2-Asn-Arg-Pro-Ala-Lys)-1,2,3,4-tetrahydro-β-carboline-3-carboxylic acid (NRPAK; not fully specified (C-terminus)) [compound 25]”: the “Effect of the pseudopeptides … x ± SD” value in the test with fibrin plate stood at 20.84 ± 10.77 mm^2. Further, in test [1], the “Euglobulin clot lysis time, x ± SD” value was determined as 217.27 ± 30.57 min. Also, in the test on thrombus, the “The reduction … x ± SD” value was 17.27 ± 3.57^2) mg.
On the same counts, the results for “3S-(2-Gln-Arg-Pro-Ala-Lys)-1,2,3,4-tetrahydro-β-carboline-3-carboxylic acid (QRPAK; not fully specified (C-terminus)) [compound 24]” are 133.89 ± 9.99^a mm^2, 96.88 ± 29.21^1a min and 22.88 ± 9.21^1) mg.
For “3S-(2-Gly-Arg-Pro-Ala-Lys)-1,2,3,4-tetrahydro-β-carboline-3-carboxylic acid (GRPAK; not fully specified (C-terminus)) [compound 22]”, the “Effect of the pseudopeptides … x ± SD” value with fibrin plate is listed as 125.90 ± 11.15^a mm^2. For the same substance, the “Euglobulin clot lysis time, x ± SD” value in test [1] is 98.02 ± 25.21^a min. Also, the “The reduction … x ± SD” value with thrombus was 24.02 ± 5.21^1) mg.
Turning to “3S-(2-Lys-Arg-Pro-Ala-Lys)-1,2,3,4-tetrahydro-β-carboline-3-carboxylic acid (KRPAK; not fully specified (C-terminus)) [compound 23]”, in the test on fibrin plate, the “Effect of the pseudopeptides … x ± SD” value is listed as 19.87 ± 9.58 mm^2. Also, the “Euglobulin clot lysis time, x ± SD” value in test [1] is reported as 213.98 ± 29.45 min. Moreover, the “The reduction … x ± SD” value in the test with thrombus was 13.98 ± 2.45 mg.
